Experimental findings from patent US8933234B2, “O-amino benzonitrile compounds, method for preparing same and uses thereof” (Hangzhou Udragon Chemical Co., Ltd., priority 2011, dated 2015) are described below.

The mortality is the percentage killed. Higher therefore signals fewer survivors.

One data set relates to pink stem borer. The data set is described as follows: Insecticidal effect on pink stem borer (method of Test Example 1). Format: in vivo. To be noted: for Insecticidal Effect (%) pink stem borer (2 mg/L): leaf disc immersed 10 seconds, mortality. As to the method: [The procedure below names another organism; the source lists this organism under the same test.] (§1) The compound to be tested dissolved in acetone and 1‰ Tween-80 solution, and was formulated to 50 ml of the test solution with desired concentration. The cabbage leaves having been cleaned and dried were made into leaf disc with diameter of 1 cm with hole puncher. The leaf disc were immersed in the drug liquid for 10 seconds and then removed, dried naturally, loaded in the culture dish. 10 […] diamondback moth larvae were introduced per dish and repeated for three times. After the treatment, the dishes were placed into a room with temperature of 20° C., relative humidity of 60-70% and without illumination to take an indoor culture. The survival of insects was surveyed and the mortality was calculated.

In the next data set the test system is Diamondback moth. The data set is described as follows: Insecticidal effect on diamondback moth (cabbage leaf disc dip test). It is filed as in vivo. The following applies: for Insecticidal Effect (%) Diamondback moth (1 mg/L): leaf disc immersed 10 seconds, larvae, mortality; for mortality at 1 µg/mL: Plutella xylostella, foliar, 72 h, concentration of 1 mg/L, 3 days. As to the method: as §1

Regarding `N#Cc1cc(Cl)cc(Cl)c1NC(=O)c1cc(Br)nn1-c1ncc(Cl)cc1Cl` [Compound I-5], the “Insecticidal Effect (%) pink stem borer (2 mg/L)” value with pink stem borer amounted to 70%. Also, in the data set on Diamondback moth, the “Insecticidal Effect (%) Diamondback moth (1 mg/L)” value was 100% and the mortality at 1 µg/mL is 100%.
For the compound `Cc1cc(Cl)cc(C#N)c1NC(=O)c1cc(Br)nn1-c1ncc(C(F)(F)F)cc1Cl` [Compound I-7], the “Insecticidal Effect (%) pink stem borer (2 mg/L)” value in the data set with pink stem borer was determined as 80%. Also, the “Insecticidal Effect (%) Diamondback moth (1 mg/L)” value in the data set on Diamondback moth is listed as 90%.
With `Cc1cc(Cl)cc(C#N)c1NC(=O)c1cc(Br)nn1-c1ncccc1Cl` [Compound I-1], in the data set with pink stem borer, the “Insecticidal Effect (%) pink stem borer (2 mg/L)” value came out at 40%. Besides, the “Insecticidal Effect (%) Diamondback moth (1 mg/L)” value in the data set with Diamondback moth was found to be 50%.
As to `N#Cc1cc(Cl)cc(Cl)c1NC(=O)c1cc(Br)nn1-c1ncccc1Cl` [Compound I-4], in the data set with pink stem borer, the “Insecticidal Effect (%) pink stem borer (2 mg/L)” value stood at 98%. Besides, the “mortality to pink stem borer in 3 days” value in the data set on pink stem borer (concentration of 2 mg/L, 3 days) stood at 98%. Also, in the data set on Diamondback moth, the “Insecticidal Effect (%) Diamondback moth (1 mg/L)” value is reported as 100% and the mortality at 1 µg/mL turned out to be 100%.
`Cc1cc(Cl)cc(C#N)c1NC(=O)c1cc(Br)nn1-c1ncc(Cl)cc1Cl` [Compound I-2]: the “Insecticidal Effect (%) pink stem borer (2 mg/L)” value in the data set with pink stem borer is on record as 50%. Moreover, the “Insecticidal Effect (%) Diamondback moth (1 mg/L)” value with Diamondback moth is 80%.
Take `Cc1cc(Cl)cc(C#N)c1NC(=O)c1cc(Br)nn1-c1ncc(Cl)cc1F` [Compound I-3]: the “Insecticidal Effect (%) pink stem borer (2 mg/L)” value with pink stem borer turned out to be 85%. Besides, in the data set on Diamondback moth, the “Insecticidal Effect (%) Diamondback moth (1 mg/L)” value came to 100% and the mortality at 1 µg/mL was determined as 100%.
As to `N#Cc1cc(Cl)cc(Cl)c1NC(=O)c1cc(Br)nn1-c1ncc(Cl)cc1F` [Compound I-6], the “Insecticidal Effect (%) pink stem borer (2 mg/L)” value in the data set on pink stem borer amounted to 90%. Also, in the data set with Diamondback moth, the “Insecticidal Effect (%) Diamondback moth (1 mg/L)” value is 100% and the mortality at 1 µg/mL is 100%.
